This is an account of results in patent publication US4136196A, “Hypoglycaemically active 2-(phenylalkyl- or -alkenyl hydrazono)-propionic acid derivatives” (Boehringer Mannheim GmbH, priority 1976, dated 1979).

A value given as a limit tells only on which side of the number the result lay.

System in one assay: not given
Experiment: not given
The following applies: in high dosages; literature; cited from earlier work.
On to `NNCCc1ccccc1` [Phenelzine, 2-phenylethyl-hydrazine, reference compound], for which the hypoglycaemic activity entry is reported as “can be hypoglycaemically active in high dosages”.

For the molecule `CC(NN)c1ccccc1` (centres unmarked) [mebanazine, 1-phenylethyl-hydrazine], the hypoglycaemic activity entry is recorded as “can be hypoglycaemically active in high dosages”.

A further assay concerns MAO. Description: Measuring of the MAO activity in vitro (kynuramine substrate, unrefined guinea pig liver or brain preparation). The format is biochemical. The following applies: 360 mμ, read-out: Concentration for 50% MAO Inhibitions. How it is done: In order to illustrate the pharmacological properties of the compounds according to the invention, the blood sugarlowering effect and the monoaminoxidase (MAO) inhibition were determined and compared with some corresponding hydrazines.
An unrefined MAO preparation is obtained by comminution of guinea pig liver or brain with the Ultraturrax and subsequent centrifuging at about 10,000 g. The liquid contains the MAO portion dissolved in the cytoplasm and is used for the activity measurements. As substrate there is used kynuramine whose oxidative decomposition by the MAO can be directly observed at 360 m μ in the photometer. The extinction decrease per time unit is a measure of the enzyme activity.
Take `NNCCc1ccccc1` [Phenelzine, 2-phenylethyl-hydrazine, reference compound]: the IC50 was determined as 0.4 µM.

For the molecule `CC(=NNCCc1ccccc1)C(=O)O` [2-(phenethylhydrazono)-propionic acid, 2-(Phenethylhydrazono)-propionic acid], the IC50 worked out at 600 µM.

The subject of the next assay is blood glucose. Description: Blood sugar tests: hypoglycaemic activity in fasting guinea pigs, i.p. It counts as in vivo, guinea pig. The following applies: Cavia porcellus, ip, read-out: Threshold i.p. Dosage for Hypoglycaemic Activity in Testing Guinea Pigs. As for the experimental part: In order to illustrate the pharmacological properties of the compounds according to the invention, the blood sugarlowering effect and the monoaminoxidase (MAO) inhibition were determined and compared with some corresponding hydrazines. […] Metabolically healthy, cross-bred, fasting guinea pigs were injected with the substances as aqueous solutions of their sodium salts, i.p. A control group receives equivalent amounts of an isotonic NaCl solution. Directly before, as well as in hourly intervals up to the fourth hour after the […], 10 μl blood are taken from an ear border vein and the blood glucose is determined by means of the trouble-free and specific hexokinase technique.
`NNCCc1ccccc1` [Phenelzine, 2-phenylethyl-hydrazine, reference compound]: the minimal effective dose was at least 50 mg/kg.

As to `CC(=NNCCc1cccc(Br)c1)C(=O)[O-].[Na+]` [sodium 2-(3-bromophenethylhydrazono)-propionate], the minimal effective dose lay within 25 to 50 mg/kg.

Consider `CC(=NNCC=Cc1ccccc1)C(=O)[O-].[Na+]` [Sodium-2-(cinnamylhydrazono)-propionate, sodium 2-(cinnamylhydrazono)-propionate], for which the minimal effective dose worked out at 15 mg/kg.

For `COc1ccccc1CCNN=C(C)C(=O)[O-].[Na+]` [sodium 2-(2-methoxyphenethylhydrazono)-propionate], the minimal effective dose was 25 mg/kg.

For the molecule `CC(=NNCCCc1ccccc1)C(=O)[O-].[Na+]` [Sodium 2-(3-phenylpropylhydrazono)-propionate], the minimal effective dose was 35 mg/kg.

The same assay, now with this note: Cavia porcellus, ip; fasting guinea pigs, i.p., aqueous solutions of sodium salts; dosage which significantly lowers blood glucose versus control, up to fourth hour; read-out: Threshold i.p. Dosage for Hypoglycaemic Activity in Testing Guinea Pigs.
Turning to `COC(=O)C(C)=NNCCc1ccccc1` [Methyl 2-(phenethylhydrazono)-propionate], the minimal effective dose stood at 50 mg/kg.

Take `CC(=NNCCc1ccccc1C)C(=O)O` [2-(2-methylphenethylhydrazono)-propionic acid]: the minimal effective dose came out at 50 mg/kg.

On to `CC(=NNCCc1ccc(F)cc1)C(=O)O` [2-(4-fluorophenethylhydrazono)-propionic acid], for which the minimal effective dose stood at 25 mg/kg.

As to `CC(=NNCCc1ccccc1)C(=O)O` [2-(phenethylhydrazono)-propionic acid, 2-(Phenethylhydrazono)-propionic acid], the minimal effective dose worked out at 15 mg/kg.

With `COc1ccc(CCNN=C(C)C(=O)O)cc1` [2-(4-methoxyphenethylhydrazono)-propionic acid], the minimal effective dose worked out at 50 mg/kg.

With `CC(=NNCCc1ccc(Cl)cc1)C(=O)O` [2-(4-chlorophenethylhydrazono)-propionic acid], the minimal effective dose was 25 mg/kg.

`CC(=NNCCc1ccc(C)cc1)C(=O)O` [2-[2-(p-tolyl)-ethylhydrazono]-propionic acid]: the minimal effective dose was 50 mg/kg.

Turning to `CC(=NNCCc1ccccc1)C(N)=O` [2-(phenethylhydrazono)-propionamide], the minimal effective dose was found to be 50 mg/kg.

Regarding `CCOC(=O)C(C)=NNCCc1ccccc1` [Ethyl 2-(phenethylhydrazono)-propionate], the minimal effective dose was 25 mg/kg.

The same assay, now with this note: fasting guinea pigs, i.p., aqueous solutions of sodium salts; dosage which significantly lowers blood glucose versus control, up to fourth hour.
As to “sodium 2-(β-methylcinnamylhydrazono)-propionate”, the “Threshold i.p. Dosage for Hypoglycaemic Activity in Testing Guinea Pigs” value is recorded as 10 mg/kg.

Take “3-phenyl-propen-2-yl--hydrazin-hydrochloride [reference compound]”: the “Threshold i.p. Dosage for Hypoglycaemic Activity in Testing Guinea Pigs” value is over 50 mg/kg.
